Test results published in the NIST ThermoML archive (doi:10.1021/je050389b).

Assay: xn = mol fraction of the nth substance listed
Conditions: 100.5 kPa, Liquid

CC(=O)OCCC(C)C [3-methylbutyl ethanoate] + CCO
Conditions	mass density, 288.15 K [kg/m3]	mass density, 298.15 K [kg/m3]	mass density, 308.15 K [kg/m3]	mass density, 318.15 K [kg/m3]	viscosity, 288.15 K [mPa·s]	viscosity, 298.15 K [mPa·s]	viscosity, 308.15 K [mPa·s]	viscosity, 318.15 K [mPa·s]
x1 = 0.05	803.41	794.64	785.74	776.69	1.22	1.011	0.847	0.716
x1 = 0.1	811.89	802.92	793.84	784.6	1.133	0.946	0.799	0.68
x1 = 0.15	819.25	810.13	800.9	791.5	1.072	0.902	0.762	0.651
x1 = 0.2	825.81	816.58	807.21	797.69	1.031	0.866	0.735	0.63
x1 = 0.25	831.66	822.31	812.85	803.22	0.996	0.841	0.716	0.615
x1 = 0.3	836.85	827.42	817.86	808.15	0.968	0.821	0.701	0.605
x1 = 0.35	841.58	832.08	822.44	812.65	0.948	0.805	0.689	0.596
x1 = 0.4	845.81	836.24	826.53	816.69	0.934	0.793	0.68	0.59
x1 = 0.45	849.7	840.07	830.32	820.42	0.924	0.786	0.675	0.586
x1 = 0.5	853.26	843.59	833.79	823.86	0.916	0.779	0.671	0.583
x1 = 0.55	856.53	846.82	836.99	827.03	0.91	0.776	0.668	0.582
x1 = 0.6	859.57	849.83	839.97	829.99	0.907	0.773	0.667	0.582
x1 = 0.65	862.36	852.58	842.71	832.72	0.908	0.773	0.667	0.584
x1 = 0.7	865	855.21	845.33	835.33	0.911	0.775	0.67	0.588
x1 = 0.75	867.44	857.64	847.75	837.75	0.912	0.78	0.675	0.594
x1 = 0.8	869.73	859.93	850.04	840.05	0.916	0.782	0.68	0.601
x1 = 0.85	871.89	862.08	852.2	842.22	0.926	0.791	0.688	0.609
x1 = 0.9	873.95	864.14	854.28	844.34	0.937	0.799	0.697	0.618
x1 = 0.95	875.87	866.09	856.25	846.32	0.939	0.804	0.703	0.625
x1 = 1	877.72	867.91	858.07	848.17	0.94	0.804	0.704	0.627
